± gives the standard deviation of the averaged measurements.
Legend:
Assay in all cases: level (log10 ratio to DMSO vehicle control); higher = higher biomarker level / cell amount than vehicle control
[1] = compound: O=C(O)C(F)(OC(F)(F)C(F)(F)C(F)(F)F)C(F)(F)F [Ammonium perfluoro-2-methyl-3-oxahexanoate] (in Water)
Method: (§1)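 BioMAP Diversity Plus panel of 12 human primary cell co-culture systems (3C, 4H, LPS, SAg, BT, BF4T, BE3C, CASM3C, HDF3CGF, KF3CT, MyoF, Mphg). Compounds were added 1 h before stimulation and left for 24 h (MyoF 48 h; BT 72 h for soluble read-outs or 6 d for IgG). Biomarkers were read by ELISA, cytotoxicity by SRB, PBMC viability and proliferation by Alamar Blue. Each well value was divided by the mean of 8 DMSO control wells on the same plate and log10 transformed; duplicate blinded samples were tested at 4 concentrations.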

[2] = compound: CO[Si](C)(CCC(F)(F)C(F)(F)C(F)(F)C(F)(F)C(F)(F)C(F)(F)F)OC [Dimethoxymethyl((perfluorohexyl)ethyl)silane] (in DMSO)
Method: as §1

[3] = compound: O=S(=O)(O)C(F)(F)C(F)(F)OC(F)(F)C(F)(F)F [Perfluoro(2-ethoxyethane)sulfonic acid] (in DMSO)
Method: as §1

[4] = compound: OCC(F)(F)C(F)(F)C(F)(F)C(F)(F)C(F)(F)C(F)(F)CO [1H,1H,8H,8H-Perfluorooctane-1,8-diol] (in DMSO)
Method: as §1

[5] = compound: NS(=O)(=O)C(F)(F)C(F)(F)C(F)(F)C(F)(F)C(F)(F)C(F)(F)C(F)(F)C(F)(F)F [Perfluorooctanesulfonamide] (in DMSO)
Method: as §1

Octafluoroadipic acid = compound: O=C(O)C(F)(F)C(F)(F)C(F)(F)C(F)(F)C(=O)O [Octafluoroadipic acid] (in DMSO)
Method: as §1

[6] = compound: O=C(O)C(F)(OC(F)(F)C(F)(OC(F)(F)C(F)(OC(F)(F)C(F)(F)C(F)(F)F)C(F)(F)F)C(F)(F)F)C(F)(F)F [Perfluoro-(2,5,8-trimethyl-3,6,9-trioxadodecanoic)acid] (in DMSO)
Method: as §1

Row | Test System | level (log10) ([1]; 6700 nM) | level (log10) ([1]; 20000 nM) | level (log10) ([1]; 60000 nM) | level (log10) ([2]; 6700 nM) | level (log10) ([2]; 20000 nM) | level (log10) ([3]; 6700 nM) | level (log10) ([3]; 20000 nM) | level (log10) ([3]; 60000 nM) | level (log10) ([4]; 6700 nM) | level (log10) ([4]; 20000 nM) | level (log10) ([4]; 60000 nM) | level (log10) ([5]; 6700 nM) | level (log10) ([5]; 20000 nM) | level (log10) (Octafluoroadipic acid; 6700 nM) | level (log10) (Octafluoroadipic acid; 20000 nM) | level (log10) (Octafluoroadipic acid; 60000 nM) | level (log10) ([6]; 1100 nM) | level (log10) ([6]; 3300 nM) | level (log10) ([6]; 10000 nM)
1 | BE3C:CXCL8/IL-8 | -0.013 ± 0.071 | 0.0005 ± 0.011 | 0.0195 ± 0.011 | -0.006 ± 0.0085 | 0.038 ± 0.038 | 0.0135 ± 0.016 | 0.008 ± 0.038 | 0.04 ± 0.0028 | -0.021 ± 0.027 | -0.0325 ± 0.023 | -0.0245 ± 0.066 | -0.123 ± 0.0099 | -0.192 ± 0.013 | 0.0325 ± 0.0092 | 0.0355 ± 0.021 | 0.058 ± 0.068 | 0.05 ± 0.038 | 0.039 ± 0.023 | 0.0625 ± 0.00071
2 | BE3C:CXCL9/MIG | 0.0065 ± 0.013 | 0.0045 ± 0.005 | 0 ± 0.0042 | 0.002 ± 0.0042 | 0.001 ± 0.0071 | 0.002 ± 0.0042 | -0.0145 ± 0.012 | -0.0055 ± 0.0035 | 0.004 ± 0.0085 | 0 ± 0.016 | -0.006 ± 0.0071 | -0.0015 ± 0.0021 | 0.013 ± 0.013 | 0.0105 ± 0.013 | 0.012 | 0.0075 ± 0.016 | -0.001 ± 0.0071 | 0.0025 ± 0.0078 | 0.0045 ± 0.015
3 | BE3C:CXCL10/IP-10 | -0.0095 ± 0.013 | -0.001 ± 0.0042 | 0.0115 ± 0.0092 | -0.0025 ± 0.0078 | -0.0065 ± 0.0021 | -0.008 ± 0.02 | -0.024 ± 0.033 | -0.01 ± 0.0071 | 0.003 ± 0.013 | -0.006 ± 0.0014 | -0.018 ± 0.0028 | -0.142 ± 0.0078 | -0.414 ± 0.0028 | -0.0035 ± 0.0035 | -0.002 ± 0.011 | 0.017 ± 0.023 | 0.035 ± 0.024 | 0.0325 ± 0.015 | 0.036 ± 0.0071
4 | BE3C:CXCL11/I-TAC | -0.011 ± 0.0057 | 0.0115 ± 0.0021 | -0.0045 ± 0.0078 | -0.0055 ± 0.019 | -0.0125 ± 0.0035 | 0.032 ± 0.0057 | 0.076 ± 0.0042 | 0.073 ± 0.0042 | -0.006 ± 0.0085 | -0.0045 ± 0.026 | -0.0165 ± 0.0064 | -0.0565 ± 0.013 | -0.183 ± 0.06 | -0.0025 ± 0.0078 | 0.0085 ± 0.012 | 0.0085 ± 0.0078 | 0.0145 ± 0.0092 | 0.0165 ± 0.013 | 0.014 ± 0.016
5 | BE3C:EGFR | -0.016 ± 0.023 | -0.009 ± 0.0085 | 0.005 ± 0.0057 | 0.001 ± 0.011 | -0.01 ± 0.017 | 0 ± 0.0014 | -0.019 ± 0.017 | -0.004 | -0.019 ± 0.024 | -0.01 ± 0.017 | -0.0315 ± 0.005 | -0.0005 ± 0.00071 | -0.044 ± 0.0014 | -0.012 ± 0.017 | -0.0015 ± 0.005 | 0.0105 ± 0.016 | 0.0085 ± 0.0021 | 0.0035 ± 0.0035 | 0.0185 ± 0.0078
6 | BE3C:HLA-DR | -0.022 ± 0.013 | -0.0015 ± 0.018 | -0.0265 ± 0.0021 | -0.0045 ± 0.0021 | -0.0235 ± 0.012 | -0.0085 ± 0.033 | -0.012 ± 0.014 | -0.0335 ± 0.0092 | 0.009 | -0.0245 ± 0.0064 | -0.039 ± 0.014 | -0.0975 ± 0.013 | -0.136 ± 0.011 | 0 ± 0.021 | 0.0045 ± 0.018 | 0.012 ± 0.0028 | -0.0055 ± 0.005 | -0.0095 ± 0.0021 | 0.0085 ± 0.0078
7 | BE3C:IL-1alpha | -0.0215 ± 0.013 | -0.001 ± 0.0028 | -0.0085 ± 0.005 | 0.0025 ± 0.018 | 0.021 ± 0.0071 | 0.0015 ± 0.0021 | 0.0045 ± 0.0035 | 0.0085 ± 0.005 | 0.002 ± 0.0042 | 0.0015 ± 0.0064 | 0.0055 ± 0.029 | -0.005 ± 0.023 | -0.066 ± 0.017 | 0.0155 ± 0.0064 | 0.009 ± 0.023 | -0.031 ± 0.0028 | -0.019 ± 0.0028 | -0.0175 ± 0.035 | 0.004 ± 0.018
8 | BF4T:CCL2/MCP-1 | 0.007 ± 0.031 | 0.005 ± 0.048 | 0.0285 ± 0.021 | -0.0175 ± 0.00071 | 0.01 ± 0.021 | 0.0155 ± 0.0064 | 0.0155 ± 0.0064 | 0.0315 ± 0.039 | -0.0075 ± 0.0064 | -0.017 ± 0.0014 | -0.009 ± 0.024 | -0.084 ± 0.0071 | -0.0565 ± 0.018 | 0.0145 ± 0.012 | -0.011 | 0.0225 ± 0.057 | 0.007 ± 0.028 | 0.0015 ± 0.00071 | -0.004 ± 0.017
9 | BF4T:CCL26/Eotaxin-3 | -0.128 ± 0.03 | -0.0995 ± 0.06 | -0.137 ± 0.03 | 0.0285 ± 0.011 | -0.0075 ± 0.0092 | 0.019 ± 0.0014 | -0.0075 ± 0.00071 | 0.039 ± 0.038 | 0.004 ± 0.0057 | -0.009 ± 0.033 | -0.019 ± 0.018 | -0.117 ± 0.017 | -0.169 ± 0.014 | 0.0055 ± 0.025 | -0.007 ± 0.042 | 0.009 ± 0.04 | -0.026 ± 0.018 | 0.009 ± 0.025 | 0.034 ± 0.021
10 | BF4T:CD54/ICAM-1 | -0.0155 ± 0.012 | -0.0265 ± 0.016 | -0.0075 ± 0.0021 | -0.006 ± 0.0071 | -0.008 ± 0.0099 | -0.003 ± 0.0028 | -0.0125 ± 0.0064 | -0.008 ± 0.017 | -0.0275 ± 0.0092 | -0.015 ± 0.013 | -0.029 ± 0.017 | -0.029 ± 0.0014 | -0.06 ± 0.045 | -0.001 ± 0.025 | -0.007 ± 0.017 | 0.0065 ± 0.029 | 0.0025 ± 0.018 | 0.004 ± 0.0042 | 0.004 ± 0.0085
11 | BF4T:CD90 | -0.0065 ± 0.011 | -0.015 ± 0.011 | -0.007 ± 0.024 | 0.0085 ± 0.018 | 0 ± 0.021 | -0.01 ± 0.0085 | -0.0185 ± 0.0092 | -0.0185 ± 0.0021 | -0.011 ± 0.023 | -0.005 ± 0.028 | -0.014 ± 0.018 | -0.0275 ± 0.012 | -0.0585 ± 0.016 | 0.005 ± 0.0042 | -0.0075 ± 0.0035 | -0.006 | 0.001 ± 0.0042 | 0 ± 0.0028 | 0.0085 ± 0.0035
12 | BF4T:CD106/VCAM-1 | -0.0735 ± 0.039 | -0.018 ± 0.0085 | -0.008 ± 0.0014 | 0.018 ± 0.0014 | -0.003 ± 0.02 | 0.003 ± 0.0057 | 0.0045 ± 0.028 | 0.021 ± 0.055 | -0.006 ± 0.014 | 0.001 ± 0.0014 | -0.006 ± 0.0057 | -0.052 ± 0.0057 | -0.1125 ± 0.00071 | -0.01 ± 0.0014 | -0.0095 ± 0.016 | 0.002 ± 0.048 | -0.027 ± 0.0028 | -0.0185 ± 0.026 | -0.018 ± 0.023
13 | BF4T:CXCL8/IL-8 | -0.0135 ± 0.036 | 0.0295 ± 0.028 | 0.0255 ± 0.03 | -0.005 ± 0.027 | 0.012 ± 0.018 | 0.008 ± 0.0099 | 0.005 ± 0.024 | 0.0365 ± 0.011 | -0.003 ± 0.0042 | -0.0095 ± 0.0064 | 0.001 ± 0.0071 | 0.003 ± 0.0057 | 0.0405 ± 0.013 | 0.0435 ± 0.0021 | -0.0005 ± 0.021 | 0.013 ± 0.05 | 0.0365 ± 0.0078 | 0.034 ± 0.024 | 0.034 ± 0.016
14 | BF4T:IL-1alpha | 0.018 ± 0.03 | 0.0055 ± 0.036 | -0.0085 ± 0.021 | -0.0245 ± 0.0078 | 0.014 ± 0.035 | -0.0065 ± 0.0078 | -0.016 ± 0.0071 | 0.0165 ± 0.0092 | -0.0105 ± 0.011 | -0.0135 ± 0.013 | 0.0145 ± 0.029 | 0.0095 ± 0.012 | -0.0455 ± 0.022 | -0.003 ± 0.0014 | -0.016 ± 0.0042 | 0.002 ± 0.0014 | -0.005 ± 0.0099 | -0.0105 ± 0.00071 | -0.0025 ± 0.0035
15 | BF4T:Keratin 8/18 | -0.0205 ± 0.0078 | -0.008 ± 0.035 | -0.022 ± 0.014 | 0.029 ± 0.034 | 0.006 ± 0.016 | 0.0015 ± 0.012 | -0.01 ± 0.0028 | 0.023 ± 0.037 | -0.0005 ± 0.0021 | 0.021 ± 0.0014 | -0.003 ± 0.0042 | -0.0085 ± 0.005 | -0.069 ± 0.023 | 0.002 ± 0.023 | -0.004 ± 0.021 | 0.004 ± 0.037 | 0.024 ± 0.0099 | 0.0055 ± 0.022 | 0.018 ± 0.0099
